According to US20130251678A1, “BID DOSAGE REGIMEN FOR DEB025” (NOVARTIS AG, priority 2010, published 2013):

Legend:
Format in all cases: in vivo, human
HCV Genotype 1 [1] = experiment: Clinical study in HCV Genotype 1 non responder patients: decline in HCV RNA from baseline; conditions: with peg-IFNα2a plus RBV
Excerpt: HCV RNA levels can be measured using commercially available methods. As used herein, LOD means limit of detection and LOQ means limit of quantification of HCV RNA levels. For example, when using the COBAS® TaqMan® HCV Test, v2.0 (Roche Diagnostics) for assessment of HCV RNA levels, LOQ of 25 IU/ml (1.398 log10) and LOD of 10 IU/ml (1 log10) have been reported.
The efficacy of the therapy regimen may be monitored using standard protocols. Treatment may be followed by determinations of HCV in serum and measurement of serum ALT (alanine-aminotransferase) levels. For example, the patients may be assessed for the presence of HCV RNA in their plasma. HCV RNA (IU/mL) can be measured at regular intervals during the treatment, e.g., at Day 1 (pre-dose and 4, 8, and 12 hours post-dose) and pre-dose at Day 2, Day 3, Day 8, Day 15, Day 29, and at Week 12, Week 24, Week 36, Week 48, Week 72 (when applicable), and at follow up. In addition, the HCV strains in the patient can be sequenced and assessed for identification of mutations selecting for resistance.
In this hard to treat patient population, the 400 mg BID dose provided greater decline in HCV RNA from baseline (−1.41 log10 IU/ml) than the 800 mg QD dose (−0.70 log10 IU/ml). […]

[2] = Observed alisporivir Cmin in the HCV Genotype 1 non responder patient study; conditions: first week of treatment
Excerpt: As used herein, AUC refers to Area Under the Curve in [hr ng/mL] or area under the concentration vs time curve indicating the integrated quantity of analyte or drug (the serum concentration curve) after dosing; Cmax refers to the maximum concentration of the analyte or drug in [ng/mL] achieved after dosing; Cmin refers to the minimum concentration of the analyte or drug in [ng/mL] achieved after dosing

HCV Genotype 1 [3] = experiment: Phase 2 study of genotype 1 treatment-naive patients: sustained virologic response (SVR); conditions: 600 mg BID for one week followed by 600 mg QD, 48 week treatment duration, combined with peg-IFNα2a
Excerpt: The virological response parameters are: rapid virologic response at treatment week 4 (RVR 4) defined by undetectable serum HCV-RNA at treatment week 4; early virological response (EVR), defined by at least 2 log10 IU/mL reduction in HCV-RNA compared to baseline (partial EVR) or undetectable serum HCV-RNA (complete EVR) at treatment week 12; sustained virological response (SVR24), defined as absence of HCV-RNA from serum by a sensitive Polymerase Chain Reaction (PCR) assay 24 weeks following end of therapy or the HCV RNA is undetectable (by LOD) 24 weeks after end of treatment; End of Treatment Response (ETR): HCV RNA undetectable (by LOD) at treatment end (completed or prematurely discontinued).

With `C/C=C/C[C@@H](C)[C@@H](O)[C@H]1C(=O)N[C@@H](CC)C(=O)N(C)[C@H](C)C(=O)N(CC)[C@@H](C(C)C)C(=O)N[C@@H](C(C)C)C(=O)N(C)[C@@H](CC(C)C)C(=O)N[C@@H](C)C(=O)N[C@H](C)C(=O)N(C)[C@@H](CC(C)C)C(=O)N(C)[C@@H](CC(C)C)C(=O)N(C)[C@@H](C(C)C)C(=O)N1C` [alisporivir, Alisporivir] the “decline in HCV RNA from baseline” value (HCV Genotype 1 [1]; 400 mg BID during first week of treatment) was −1.41 log10 IU/ml, the “decline in HCV RNA from baseline” value (HCV Genotype 1 [1]; 800 mg QD during first week of treatment) was −0.70 log10 IU/ml and the “median observed Cmin” value ([2]; 400 mg BID) was 175 ng/mL. The “median observed Cmin” value ([2]; 800 mg QD) was 148 ng/mL and the “rates of achievement of sustained virologic response (SVR) versus peg-IFNα2a” value (HCV Genotype 1 [3]) was “superior”.
